Results as given in ChEMBL document CHEMBL4002558, “Characterization of a Bioactive Acyclotide from Palicourea rigida” (J Nat Prod, 2016).
Positions of bridges follow the written chain, without caps; N, C: chain ends. Residues, ends and D or L forms follow the SMILES beside them.

system: MCF7; test: Cytotoxicity against human MCF7 cells assessed as decrease in cell viability at 10 uM after 72 hrs by MTT assay; format: functional, cell-based; conditions: MCF7, 72 h

| Structure (SMILES) | IC50 |
| --- | --- |
| CC(C)C[C@H](NC(=O)[C@@H](N)CCCCN)C(=O)N[C@H]1CSSC[C@@H]2NC(=O)[C@H](CO)NC(=O)[C@H](CS)NC(=O)CNC(=O)[C@@H]3CCCN3C(=O)[C@H]([C@@H](C)O)NC(=O)[C@H](Cc3ccc(O)cc3)NC(=O)[C@@H]3CSSC[C@@H](C(=O)N[C@@H](CCCCN)C(=O)O)NC(=O)[C@H](Cc4ccccc4)NC(=O)[C@@H]4CCCN4C(=O)[C@H](Cc4ccc(O)cc4)NC(=O)[C@H](CO)NC(=O)[C@H](CSSC[C@H](NC(=O)[C@H]([C@@H](C)O)NC(=O)[C@H](CCC(=O)O)NC(=O)CNC1=O)C(=O)N[C@@H](Cc1ccccc1)C(=O)N[C@@H](CCCCN)C(=O)N[C@@H](Cc1ccccc1)C(=O)N[C@@H](CCCCN)C(=O)N3)NC(=O)[C@H](CO)NC2=O (H-KLCGETCFKFKCYTPGCSCSCSYPFCK-OH; disulfide 3-19, 7-21, 12-26) | 2.98 µM |
| CC[C@H](C)[C@H](NC(=O)CN)C(=O)N[C@@H](C)C(=O)N[C@H]1CSSC[C@H]2NC(=O)CNC(=O)[C@@H]3CCCN3C(=O)[C@H]([C@@H](C)CC)NC(=O)[C@H](Cc3ccccc3)NC(=O)[C@@H]3CSSC[C@@H](C(=O)N[C@@H](Cc4ccc(O)cc4)C(=O)N[C@@H](Cc4ccccc4)C(=O)N[C@@H](CC(N)=O)C(=O)O)NC(=O)[C@H](C(C)C)NC(=O)[C@H](CCCCN)NC(=O)[C@H](CO)NC(=O)[C@H](CCCCN)NC(=O)[C@H](CSSC[C@H](NC(=O)[C@H](CO)NC(=O)[C@H](CCC(=O)O)NC(=O)CNC1=O)C(=O)N[C@@H](C(C)C)C(=O)N[C@@H](Cc1ccccc1)C(=O)N[C@@H](CC(C)C)C(=O)NCC(=O)N3)NC(=O)[C@H](CO)N2 | 7.77 µM |
| CC[C@H](C)[C@@H]1NC(=O)[C@@H]2CSSC[C@@H](C(=O)N[C@@H](Cc3ccc(O)cc3)C(=O)N[C@@H](CCCNC(=N)N)C(=O)N[C@@H](CC(=O)O)C(=O)O)NC(=O)[C@H](C(C)C)NC(=O)[C@H](CCCCN)NC(=O)[C@H](CC(N)=O)NC(=O)[C@H](CCCCN)NC(=O)[C@H]3CSSC[C@H](NC(=O)[C@H](CO)NC(=O)[C@H](CCC(=O)O)NC(=O)CNC(=O)[C@@H](NC(=O)[C@@H]4CCCN4C(=O)[C@@H](NC(=O)[C@@H](NC(=O)CN)C(C)C)[C@@H](C)CC)CSSC[C@@H](NC(=O)CNC(=O)[C@H](CC(C)C)NC(=O)[C@H](C(C)C)NC(=O)[C@H](CO)NC(=O)[C@H](CO)NC1=O)C(=O)N[C@@H](CO)C(=O)N3)C(=O)N[C@@H](C(C)C)C(=O)N[C@@H](Cc1ccccc1)C(=O)N[C@@H]([C@@H](C)CC)C(=O)N1CCC[C@H]1C(=O)N2 | 0.64 µM |
